Measured values from publication PMC8842605, “Novel Derivatives of diphenyl-1,3,4-oxadiazol as Ligands of Benzodiazepine Receptors; Synthesize, Binding Assay and Pharmacological Evaluation” (Iranian Journal of Pharmaceutical Research : IJPR, 2021).

Columns and labels:
[1] = test system: maximal electro shock-induced seizure; assay: Maximal electro shock (MES) test; assay type: in vivo; details: Mus musculus, 0.5 h; mice, 30 min after administration; 60 Hz, 50 mA, 0.2 s; HLTE; read-out: ED50 (95% CI), MES test
Text: (§1) Two useful seizure models (MES and PTZ) were organized for evaluation of the anticonvulsant activities of novel synthesized compounds. In these experiments, the capability of novel synthesized compounds to prevent the maximal electro shock-induced seizure and pentylenetetrazol-induced seizure were screened. MES test (60 Hz, 50 mA, 0.2 s) was done according to the method described by Toolabi et al. (2020). PTZ test was done Using the mothed described by Ranjbar-ekbatan et al. (2019). These experiments were applied 30 min after administration of the novel compounds. The number of HLTE (hind limb tonic extension) in the MES test and the number of dead animals in the PTZ test were counted ([30]–[32]).

mice [2] = assay: Grip strength test; assay type: in vivo; details: Mus musculus, 0.5 h, read-out: ED50 (95% CI), Grip strength test
Procedure: To assessment the muscle relaxant effects of novel synthesized compounds by measuring the maximum force applied to the digital force meter, the grip strength test was prepared. This assessment was guided using the modified method explained by Bachstetter et al. (2014). The test was repeated 3 times for each mouse, 30 min after injection of the novel compounds ([29]).

mice [3] = assay: Pentobarbital induced sleep test; details: Mus musculus, read-out: ED50 (95% CI), Pentobarbital induced Sleeping test
benzodiazepine receptor = assay: Radioligand competition binding with [3H]-flumazenil; details: rat brain membrane; for IC50: 35 min at 30 °C, read-out: IC50 (95% CI); for Ki: Cheng-Prussof equation
Procedure: Temporarily, the brain tissue of Male Sprague-Dawley rats (200-250 g weight) were used as the source of the benzodiazepine receptors. These tissues were collected, homogenized in 20 mL of ice‐cold Tris‐HCl buffer and centrifuged at 600 g for 10 min. in the next step, the supernatant was centrifuged 37000xg for 15 min at 4 °C. […] The Bradford method using bovine serum albumin as a standard, was applied for quantification of protein in the separated membrane. Saturation and competition experiments are two basic methods of receptor binding studies. […] NSB was determined in parallel assays performed in the presence of 100 μM diazepam. Competition experiments were used to measure the percentage inhibition of radioligand specific binding (IC50) and affinity (Ki) of the novel synthesized ligands and diazepam, using the Cheng-Prussof equation.

mice [4] = assay: Elevated plus maze test; assay type: in vivo; details: Mus musculus, percentage of time spent in open arms, read-out: ED50 (95% CI), Elevated plus maze test
Procedure: To assay the anti-anxiety effects of novel synthesized compounds, the elevated plus-maze test was used. The apparatus of the elevated plus-maze test is prepared of two open arms (30 × 5 × 0.5 cm) and two close arms (30 × 5 × 35 cm) with an open roof and was set at a height of 50 cm above the floor.

[5] = test system: pentylenetetrazol-induced seizure; assay: Pentylenetetrazol (PTZ) test; assay type: in vivo; details: Mus musculus, 0.5 h; mice, 30 min after administration; number of dead animals; read-out: ED50 (95% CI), PTZ test
Text: as §1

mice [6] = assay: Open field test; assay type: in vivo; details: Mus musculus, ip, intraperitoneal, 30 min before test, total distance movement, read-out: ED50 (95% CI), Open field test
Procedure: To the assessment of the sedative effects and locomotor activities of the novel synthesized compounds, the open field test was performed. […] The total distance movement was recorded for 10 min by a digital camera and then was calculated by an automated tracking system (Ethovision XT software, Noldus, The Netherlands) ([24]).

mice [7] = assay: Rotarod test; assay type: in vivo; details: 30 min after injection, 6 rpm, 1 min, Diazepam 2 mg/kg
Procedure: For evaluation of the motor coordination and balance capability, the rotarod test was used. Concisely, 30 min after injection of the novel compounds and Diazepam (2 mg/kg), each animal was located on a rotating rod (6 rpm, 1 min). In this experiment, the average time latency to fall for each animal was noted ([33]).

mice [8] = assay: Passive avoidance test; assay type: in vivo; details: Diazepam 2 mg/kg
Text: To determine the effects of novel synthesized compounds on learning and memory disorder, the passive avoidance test was done. The passive avoidance apparatus consists of two compartments, that one of them is brightly lit (white compartment) and another one is dimly lit (black compartment). A sliding door divides these two compartments. […] After arriving in the black compartment, it was received a mild unpleasant electrical stimulation (0.5 mA for 2 s) through the grid floor. During the test phase, the animal was relocated in the white compartment. However, there was no electric stimulation in the dark compartment. The latency to enter the dark compartment was recounted ([34],[35]).

[9] = mice, 30 min after injection, maximum force

| SMILES | ED50 [1] | ED50 (mice [2]; [9]) | ED50 (mice [3]) | IC50 (benzodiazepine receptor) | Ki (benzodiazepine receptor) | ED50 (mice [4]) | ED50 [5] | ED50 (mice [6]) | melting point | ED50 (mice [2]) | latency to fall in rotarod test vs control (mice [7]) | latency to enter the dark compartment in passive avoidance test vs control (mice [8]) |
| --- | --- | --- | --- | --- | --- | --- | --- | --- | --- | --- | --- | --- |
| CCC(=O)Nc1ccccc1-c1nnc(-c2ccccc2)o1 [Compound 7h, N-(2-(5-phenyl-1,3,4-oxadiazol-2-yl)phenyl) propionamide] | 118 mg/kg | 24.6 mg/kg | 5.28 mg/kg | 2.57 nM | 1.49 nM | 11.8 mg/kg | 136 mg/kg | 10.1 mg/kg | 163 to 165 °C |  |  |  |
| COc1ccc(C(=O)Nc2ccccc2-c2nnc(-c3ccccc3)o2)cc1 [Compound 7f, 4-methoxy-N-(2-(5-phenyl-1,3,4-oxadiazol-2-yl)phenyl)benzamide] | 136 mg/kg | 26.7 mg/kg | 9.91 mg/kg | 3.03 nM | 1.76 nM | 12.7 mg/kg | 136 mg/kg | 14.5 mg/kg | 216 to 217 °C |  |  |  |
| O=C(O)c1ccccc1C(=O)Nc1ccccc1-c1nnc(-c2ccccc2)o1 [Compound 7i, 2-((2-(5-phenyl-1,3,4-oxadiazol-2-yl)phenyl)carbamoyl)benzoic acid] | 26.7 mg/kg | 13.2 mg/kg | 4.64 mg/kg | 1.54 nM |  | 8.71 mg/kg | 45.1 mg/kg | 7.14 mg/kg | 196 to 198 °C |  |  |  |
| CN1C(=O)CN=C(c2ccccc2)c2cc(Cl)ccc21 [Diazepam, reference compound] | 1.32 mg/kg |  | 1.98 mg/kg | 1.71 nM | 0.99 nM | 2.24 mg/kg | 1.01 mg/kg | 1.69 mg/kg |  | 2.27 mg/kg | significant decrease in latency to fall | significant reduction in latency to enter the dark compartment |
| O=C(Nc1ccccc1-c1nnc(-c2ccccc2)o1)c1ccc(F)cc1 [Compound 7c, 4-fluoro-N-(2-(5-phenyl-1,3,4-oxadiazol-2-yl)phenyl)benzamide] | 105 mg/kg | 30.9 mg/kg | 17.1 mg/kg | 6.05 nM | 3.51 nM | 13.7 mg/kg | 118 mg/kg | 19.7 mg/kg | 189 to 190 °C |  |  |  |
| O=C(O)CCC(=O)Nc1ccccc1-c1nnc(-c2ccccc2)o1 [Compound 7j, 4-oxo-4-((2-(5-phenyl-1,3,4-oxadiazol-2-yl)phenyl)amino)butanoic acid] | 40.8 mg/kg | 17.1 mg/kg | 4.98 mg/kg | 1.66 nM | 0.96 nM | 9.77 mg/kg | 60.9 mg/kg | 8.9 mg/kg | 159 to 160 °C |  |  |  |
| O=C(Nc1ccccc1-c1nnc(-c2ccccc2)o1)c1ccc(Cl)cc1 [Compound 7b, 4-chloro-N-(2-(5-phenyl-1,3,4-oxadiazol-2-yl)phenyl)benzamide] | 163 mg/kg | 31.5 mg/kg | 19.4 mg/kg | 7.62 nM | 4.43 nM | 11.8 mg/kg | 180 mg/kg | 21.3 mg/kg | 195 to 197 °C |  |  |  |
| O=C(Nc1ccccc1-c1nnc(-c2ccccc2)o1)c1ccccc1 [Compound 7a, N-(2-(5-phenyl-1,3,4-oxadiazol-2-yl)phenyl)benzamide] | 235 mg/kg | 34.9 mg/kg | 22.7 mg/kg | 10.2 nM | 5.95 nM | 15.3 mg/kg | 276 mg/kg | 27.7 mg/kg | 188 to 189 °C |  |  |  |
| CC(=O)Nc1ccccc1-c1nnc(-c2ccccc2)o1 [Compound 7g, N-(2-(5-phenyl-1,3,4-oxadiazol-2-yl)phenyl)acetamide] | 186 mg/kg | 28.8 mg/kg | 9.45 mg/kg | 2.78 nM | 1.61 nM | 12.8 mg/kg | 147 mg/kg | 14 mg/kg | 155 to 157 °C |  |  |  |
| O=C(Nc1ccccc1-c1nnc(-c2ccccc2)o1)c1ccc([N+](=O)[O-])cc1 [Compound 7e, 4-nitro-N-(2-(5-phenyl-1,3,4-oxadiazol-2-yl)phenyl)benzamide] | 24.2 mg/kg | 25.7 mg/kg | 19.6 mg/kg | 9.16 nM | 5.32 nM | 9.96 mg/kg | 45.2 mg/kg | 19.1 mg/kg | 195 to 197 °C |  |  |  |
| Cc1ccc(C(=O)Nc2ccccc2-c2nnc(-c3ccccc3)o2)cc1 [Compound 7d, 4-methyl-N-(2-(5-phenyl-1,3,4-oxadiazol-2-yl)phenyl)benzamide] | 92.5 mg/kg | 29.4 mg/kg | 13.1 mg/kg | 4.26 nM | 2.47 nM | 12.6 mg/kg | 109 mg/kg | 18.8 mg/kg | 200 to 202 °C |  |  |  |
